Laboratory results from patent US20250074897A1, “PYRIDAZINONES AS PARP7 INHIBITORS” (Ribon Therapeutics, Inc., priority 2019, published 2025).

Biological target: T1, PARP7 (TIPARP) (Homo sapiens, UniProt Q7Z3E1)
T1 sequence (Q7Z3E1 1-657): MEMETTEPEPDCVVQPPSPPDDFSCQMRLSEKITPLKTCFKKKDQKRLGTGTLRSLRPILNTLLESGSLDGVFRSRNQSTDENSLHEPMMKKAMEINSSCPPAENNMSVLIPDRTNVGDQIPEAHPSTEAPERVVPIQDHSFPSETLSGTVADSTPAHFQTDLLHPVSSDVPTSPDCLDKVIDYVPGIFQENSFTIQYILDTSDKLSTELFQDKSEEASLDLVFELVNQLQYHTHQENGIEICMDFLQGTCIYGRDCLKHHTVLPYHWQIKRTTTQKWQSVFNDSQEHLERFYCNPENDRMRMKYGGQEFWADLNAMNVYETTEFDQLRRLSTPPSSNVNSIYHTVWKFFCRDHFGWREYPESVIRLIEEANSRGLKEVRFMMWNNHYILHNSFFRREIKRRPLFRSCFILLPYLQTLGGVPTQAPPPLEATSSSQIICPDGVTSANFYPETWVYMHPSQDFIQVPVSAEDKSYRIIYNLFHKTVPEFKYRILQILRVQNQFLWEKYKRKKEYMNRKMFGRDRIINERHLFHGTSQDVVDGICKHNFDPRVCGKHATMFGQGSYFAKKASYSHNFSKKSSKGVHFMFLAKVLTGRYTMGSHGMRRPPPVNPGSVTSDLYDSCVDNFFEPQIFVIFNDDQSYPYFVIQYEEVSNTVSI
Assay: Enzymatic assay for inhibition of PARP7: TR-FRET displacement of biotinylated Probe A from the TIPARP active site
Type: binding
Conditions: 6 nM TIPARP, 2 nM Probe A, 25° C., 30 min incubation with test compound
Experimental: Enzymatic Assay for Inhibition of PARP7
Displacement of Probe A, a biotinylated probe binding to the TIPARP active site, was measured using a time-resolved fluorescence energy transfer (TR-FRET) assay. 20 nL of a dose response curve of each test compound was spotted in black 384-well polystyrene proxiplates (Perkin Elmer) using a Mosquito (TTP Labtech). Reactions were performed in a 8 μL volume by adding 6 μL of TIPARP and Probe A in assay buffer (20 mM HEPES pH=8, 100 mM NaCl, 0.1% bovine serum albumin, 2 mM DTT and 0.002% Tween20), incubating with test compound at 25° C. for 30 min, then adding 2 μL of ULight-anti 6xHis and LANCE Eu-W1024 labeled streptavidin (Perkin Elmer). The final concentrations of TIPARP and Probe A were 6 nM and 2 nM, respectively. The final concentration of ULight-anti 6xHis and LANCE Eu-W1024 labeled streptavidin were 4 nM and 0.25 nM, respectively. Reactions were incubated at 25° C. for an additional 30 min, then read on an Envision platereader equipped with a LANCE/DELFIA top mirror (Perkin Elmer) using excitation of 320 nm and emission of 615 nm and […] with a 90 μs delay. The ratio of the 665/615 nm emission were calculated for each well to determine the amount of complex of TIPARP and Probe A in each well. Control wells containing a negative control of 0.25% DMSO vehicle or a positive control of 100 μM 5-(5-(piperidin-4-yloxy)isoindolin-2-yl)-4-(trifluoromethyl)pyridazin-3(2H)-one were used to calculate the % inhibition as described below:
where TRFempd is the TR-FRET ratio from the compound treated well, TRFmin is the TR-FRET ratio from the 5-(5-(piperidin-4-yloxy)isoindolin-2-yl)-4-(trifluoromethyl)pyridazin-3(2H)-one-treated positive control well and TRFmax is the TR-FRET ratio from the DMSO-treated negative control well.
The % inhibition values were plotted as a function of compound concentration and the following 4-parameter fit was applied to derive the IC50 values:
where top and bottom are normally allowed to float, but may be fixed at 100 or 0 respectively in a 3-parameter fit. The Hill Coefficient is normally allowed to float but may also be fixed at 1 in a 3-parameter fit. Y is the % inhibition and X is the compound concentration.

| SMILES | IC50 |
| --- | --- |
| C[C@@H](COC[C@@H](O)C(=O)N1CCN(c2ncc(C(F)(F)F)cn2)CC1)Nc1cn[nH]c(=O)c1C(F)(F)F (single isomer, unassigned) [Example 1A] | < 0.1 µM |
| C[C@@H](COC[C@H](O)C(=O)N1CCN(c2ncc(C(F)(F)F)cn2)CC1)Nc1cn[nH]c(=O)c1C(F)(F)F (single isomer, unassigned) [Example 1B] | < 0.1 µM |
| C[C@@H](COC[C@@H](O)C(=O)N1CCN(c2ncc(Cl)cn2)CC1)Nc1cn[nH]c(=O)c1C(F)(F)F (single isomer, unassigned) [Example 6A] | < 0.1 µM |
| C[C@@H](COC[C@H](O)C(=O)N1CCN(c2ncc(Cl)cn2)CC1)Nc1cn[nH]c(=O)c1C(F)(F)F (single isomer, unassigned) [Example 6B] | < 0.1 µM |
| C[C@@H](COC[C@@H](O)C(=O)N1CCN(c2ncc(C(F)(F)F)cn2)CC1)Oc1cn[nH]c(=O)c1C(F)(F)F (single isomer, unassigned) [Example 7A] | < 0.1 µM |
| C[C@@H](COC[C@H](O)C(=O)N1CCN(c2ncc(C(F)(F)F)cn2)CC1)Oc1cn[nH]c(=O)c1C(F)(F)F (single isomer, unassigned) [Example 7B] | < 0.1 µM |
| C[C@@H](COC[C@@H](O)C(=O)N1CCN(c2cnc(C(F)(F)F)cn2)CC1)Nc1cn[nH]c(=O)c1C(F)(F)F [Example 2A, 5-(((S)-1-((R)-2-hydroxy-3-oxo-3-(4-(5-(trifluoromethyl)pyrazin-2-yl)piperazin-1-yl)propoxy)propan-2-yl)amino)-4-(trifluoromethyl)pyridazin-3(2H)-one] | < 0.1 µM |
| C[C@@H](COC[C@H](O)C(=O)N1CCN(c2cnc(C(F)(F)F)cn2)CC1)Nc1cn[nH]c(=O)c1C(F)(F)F [Example 2B, 5-(((S)-1-((S)-2-hydroxy-3-oxo-3-(4-(5-(trifluoromethyl)pyrazin-2-yl)piperazin-1-yl)propoxy)propan-2-yl)amino)-4-(trifluoromethyl)pyridazin-3(2H)-one] | < 0.1 µM |
| C[C@@H](COC[C@@H](O)C(=O)N1CCN(c2ncc(C(F)(F)F)s2)CC1)Nc1cn[nH]c(=O)c1C(F)(F)F [Example 3A, 5-((S)-1-((R)-2-hydroxy-3-oxo-3-(4-(5-(trifluoromethyl)thiazol-2-yl)piperazin-1-yl)propoxy)propan-2-ylamino)-4-(trifluoromethyl)pyridazin-3(2H)-one] | < 0.1 µM |
| C[C@@H](COC[C@H](O)C(=O)N1CCN(c2ncc(C(F)(F)F)s2)CC1)Nc1cn[nH]c(=O)c1C(F)(F)F [Example 3B, 5-((S)-1-((S)-2-hydroxy-3-oxo-3-(4-(5-(trifluoromethyl)thiazol-2-yl)piperazin-1-yl)propoxy)propan-2-ylamino)-4-(trifluoromethyl)pyridazin-3(2H)-one] | < 0.1 µM |
| C[C@@H](COC[C@@H](O)C(=O)N1CCN(c2ncc(C(F)F)cn2)CC1)Nc1cn[nH]c(=O)c1C(F)(F)F [Example 4A, 5-(((S)-1-((R)-3-(4-(5-(difluoromethyl)pyrimidin-2-yl)piperazin-1-yl)-2-hydroxy-3-oxopropoxy)propan-2-yl)amino)-4-(trifluoromethyl)pyridazin-3(2H)-one] | < 0.1 µM |
| C[C@@H](COC[C@H](O)C(=O)N1CCN(c2ncc(C(F)F)cn2)CC1)Nc1cn[nH]c(=O)c1C(F)(F)F [Example 4B, 5-(((S)-1-((S)-3-(4-(5-(difluoromethyl)pyrimidin-2-yl)piperazin-1-yl)-2-hydroxy-3-oxopropoxy)propan-2-yl)amino)-4-(trifluoromethyl)pyridazin-3(2H)-one] | < 0.1 µM |
| C[C@@H](COCC(C)(O)C(=O)N1CCN(c2ncc(C(F)(F)F)cn2)CC1)Nc1cn[nH]c(=O)c1C(F)(F)F (stereo partly drawn) [Example 5, 5-(((2S)-1-(2-hydroxy-2-methyl-3-oxo-3-(4-(5-(trifluoromethyl)pyrimidin-2-yl)piperazin-1-yl)propoxy)propan-2-yl)amino)-4-(trifluoromethyl)pyridazin-3(2H)-one] | < 0.1 µM |
| C[C@@H](COC[C@@H](O)C(=O)N1CCN(c2cnc(C(F)(F)F)cn2)CC1)Oc1cn[nH]c(=O)c1C(F)(F)F [Example 8A, 5-(((S)-1-((R)-2-hydroxy-3-oxo-3-(4-(5-(trifluoromethyl)pyrazin-2-yl)piperazin-1-yl)propoxy)propan-2-yl)oxy)-4-(trifluoromethyl)pyridazin-3(2H)-one] | < 0.1 µM |

Further lines, results first:

| IC50 | SMILES |
| --- | --- |
| < 0.1 µM | C[C@@H](COC[C@@H](O)C(=O)N1CCN(c2ncc(C(F)(F)F)cn2)CC1)Oc1cn[nH]c(=O)c1Br (single isomer, unassigned) [Example 12A] |
| < 0.1 µM | C[C@@H](COC[C@H](O)C(=O)N1CCN(c2ncc(C(F)(F)F)cn2)CC1)Oc1cn[nH]c(=O)c1Br (single isomer, unassigned) [Example 12B] |
| < 0.1 µM | [2H]C1([2H])N(C(=O)[C@H](O)COC[C@H](C)Nc2cn[nH]c(=O)c2C(F)(F)F)C([2H])([2H])C([2H])([2H])N(c2ncc(C(F)(F)F)cn2)C1([2H])[2H] (single isomer, unassigned) [Example 13A] |
| < 0.1 µM | [2H]C1([2H])N(C(=O)[C@@H](O)COC[C@H](C)Nc2cn[nH]c(=O)c2C(F)(F)F)C([2H])([2H])C([2H])([2H])N(c2ncc(C(F)(F)F)cn2)C1([2H])[2H] (single isomer, unassigned) [Example 13B] |
| < 0.1 µM | O=C([C@H](O)COC[C@@H]1c2ccccc2CN1c1cn[nH]c(=O)c1C(F)(F)F)N1CCN(c2ncc(C(F)(F)F)cn2)CC1 (single isomer, unassigned) [Example 17A] |
| < 0.1 µM | O=C([C@H](O)COC[C@H]1c2ccccc2CN1c1cn[nH]c(=O)c1C(F)(F)F)N1CCN(c2ncc(C(F)(F)F)cn2)CC1 (single isomer, unassigned) [Example 17B] |
| < 0.1 µM | O=C([C@@H](O)COC[C@@H]1c2ccccc2CN1c1cn[nH]c(=O)c1C(F)(F)F)N1CCN(c2ncc(C(F)(F)F)cn2)CC1 (single isomer, unassigned) [Example 17C] |
| < 0.1 µM | O=C([C@@H](O)COC[C@H]1c2ccccc2CN1c1cn[nH]c(=O)c1C(F)(F)F)N1CCN(c2ncc(C(F)(F)F)cn2)CC1 (single isomer, unassigned) [Example 17D] |
| < 0.1 µM | C[C@@H](COC[C@H](O)C(=O)N1CCN(c2cnc(C(F)(F)F)cn2)CC1)Oc1cn[nH]c(=O)c1C(F)(F)F [Example 8B, 5-(((S)-1-((S)-2-hydroxy-3-oxo-3-(4-(5-(trifluoromethyl)pyrazin-2-yl)piperazin-1-yl)propoxy)propan-2-yl)oxy)-4-(trifluoromethyl)pyridazin-3(2H)-one] |
| < 0.1 µM | C[C@@H](COC[C@@H](O)C(=O)N1CCN(c2ncc(Cl)cn2)CC1)Oc1cn[nH]c(=O)c1C(F)(F)F [Example 9A, 5-(((S)-1-((R)-3-(4-(5-chloropyrimidin-2-yl)piperazin-1-yl)-2-hydroxy-3-oxopropoxy)propan-2-yl)oxy)-4-(trifluoromethyl)pyridazin-3(2H)-one] |
| < 0.1 µM | C[C@@H](COC[C@@H](O)C(=O)N1CCN(c2ccc(C#N)cn2)CC1)Oc1cn[nH]c(=O)c1C(F)(F)F [Example 10A, 6-(4-((R)-2-hydroxy-3-((S)-2-((6-oxo-5-(trifluoromethyl)-1,6-dihydropyridazin-4-yl)oxy)propoxy)propanoyl)piperazin-1-yl)nicotinonitrile] |
